Laboratory results from patent publication US9169241B2, “Quinolinyloxyphenylsulfonamides” (Max-Planck-Gesellschaft Zur Forderung der Wissenschaften …, priority 2009, dated 2015).

Columns and labels:
Hs578T [1] = test: Matrigel outgrowth assay/branching assay; format: cell-based; conditions: Homo sapiens, Hs-578T; HS578T cell line; Table Ib; read-out: Total branching inhibition in Matrigel HS578T
Outline: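 Read-out: microscopic images of invasive branching structures at 48 h, 72 h and 96 h. Cells sat on a 3 mg/ml Matrigel layer (set 1 h, 37° C) with compound at 3.125, 1.56 and 0.78 μM or DMSO. A concentration counts as positive only with complete branching inhibition.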

[2] = biological target: T1, wild type AXL (wtAXL) receptor tyrosine kinase (Homo sapiens, UniProt P30530); test: NIH-3T3-AXL cellular kinase assay (pY-AXL-ELISA); format: cell-based; conditions: NIH-3T3-AXL (clone 22) cells, serum depleted, compounds 1 h; Table Ia
T1 construct: WtAXL cDNA was cloned into vector pLXSN(ESK) and transfected into Phoenix E packaging cells; expressed in transfected cells; host or cells: NIH3T3 N7 (mouse fibroblasts), retrovirally infected, clone 22
T1 sequence (P30530 26-894): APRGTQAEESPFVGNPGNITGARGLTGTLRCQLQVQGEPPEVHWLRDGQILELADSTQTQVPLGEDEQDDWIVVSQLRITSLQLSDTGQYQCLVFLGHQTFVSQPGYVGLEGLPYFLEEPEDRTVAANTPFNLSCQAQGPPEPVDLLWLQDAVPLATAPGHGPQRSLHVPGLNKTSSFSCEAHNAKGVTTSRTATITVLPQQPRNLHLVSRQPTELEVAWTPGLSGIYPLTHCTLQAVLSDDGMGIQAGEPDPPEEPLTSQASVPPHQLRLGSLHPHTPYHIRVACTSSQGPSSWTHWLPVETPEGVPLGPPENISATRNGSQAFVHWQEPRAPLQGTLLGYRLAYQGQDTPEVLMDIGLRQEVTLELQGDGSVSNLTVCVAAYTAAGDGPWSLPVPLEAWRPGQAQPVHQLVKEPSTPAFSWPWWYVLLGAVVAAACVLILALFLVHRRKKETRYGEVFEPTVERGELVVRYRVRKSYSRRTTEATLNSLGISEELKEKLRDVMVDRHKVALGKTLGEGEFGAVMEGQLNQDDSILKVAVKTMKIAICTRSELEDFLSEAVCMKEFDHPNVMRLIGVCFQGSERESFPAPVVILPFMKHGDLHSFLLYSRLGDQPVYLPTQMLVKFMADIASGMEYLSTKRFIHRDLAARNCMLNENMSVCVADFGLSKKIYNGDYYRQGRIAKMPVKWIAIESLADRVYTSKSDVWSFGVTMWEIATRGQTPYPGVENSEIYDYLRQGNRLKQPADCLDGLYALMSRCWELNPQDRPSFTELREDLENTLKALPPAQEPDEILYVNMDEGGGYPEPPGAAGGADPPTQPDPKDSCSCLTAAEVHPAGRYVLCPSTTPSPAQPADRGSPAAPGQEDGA
Outline: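 NIH3T3 cells stably expressing human wild-type AXL (retroviral, puromycin-selected clones) were treated with serial compound dilutions for 1 h and lysed. AXL tyrosine phosphorylation was measured by ELISA on the lysates: biotinylated 4G10 anti-phosphotyrosine, streptavidin-alkaline phosphatase, AttoPhos fluorescence at 430/560 nm after 90 min.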

Hs578T [3] = test: Wound healing migration assay; format: cell-based; conditions: Homo sapiens, Hs-578T; HS578T cell line; Table Ib
Outline: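 Cells seeded at 150000/24 well, grown to monolayer overnight, scratched with a pipette tip, then treated with compound at 12.5, 6.25 or 3.125 μM versus DMSO. Stopped by crystal violet fixation at 48-72 h once control wounds closed; IC50 taken as 50% wound size between t0 and t48 or t72.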

Hs578T [4] = test: Cell vitality assay (ATP assay, CellTiter-Glo); format: cell-based; conditions: Homo sapiens, Hs-578T; HS578T cell line, 72 h; Table Ib; read-out: IC50 ATP-Assay HS578T after 72 h
Outline: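 Cells (1000/well) incubated 72 h with test compound, top dose 12.5 μM, twofold dilutions, DMSO as reference. Lysis reagent added, luminescence recorded; background from cell-free medium wells.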

Structure (SMILES)	IC50 [2]	IC50 (Hs578T [3])	melting point	IC50 (Hs578T [1])	IC50 (Hs578T [4])
COc1cc2c(Oc3ccc(NS(=O)(=O)c4cc(Cl)ccc4Cl)cc3F)ccnc2cc1OCCCN1CCCC(C)C1 (stereo not shown) [Example 50, 2,5-Dichloro-N-(3-fluoro-4-{6-methoxy-7-[3-(3-methyl-piperidin1-yl)-propoxy]-quinolin-4-yloxy}-phenyl)-benzenesulfonamide]	< 0.5 µM	≤ 12.5 µM	127 to 129 °C	≤ 10 µM	≤ 12.5 µM
COc1cc2c(Oc3ccc(NS(=O)(=O)c4cc(Cl)ccc4Cl)cc3F)ccnc2cc1OCCN1CCOCC1 [Example 106, 2,5-Dichloro-N-{3-fluoro-4-[6-methoxy-7-(2-morpholin-4-yl-ethoxy)-quinolin-4-yloxy]-phenyl}-benzenesulfonamide]	< 0.5 µM	12.5 to 50 µM	194 to 196 °C	10 to 25 µM	≤ 12.5 µM
COc1cc2c(Oc3ccc(NS(=O)(=O)c4cccc(F)c4)cc3F)ccnc2cc1OCCCN1CCCC(C)C1 (stereo not shown) [Example 37, 3-Fluoro-N-(3-fluoro-4-{6-methoxy-7-[3-(3-methyl-piperidin-1-yl)-propoxy]-quinolin-4-yloxy}-phenyl)-benzenesulfonamide]	< 0.5 µM	12.5 to 50 µM	113 to 115 °C	10 to 25 µM	≤ 12.5 µM
COc1cc2c(Oc3ccc(NS(=O)(=O)c4cccc(OC(F)(F)F)c4)cc3F)ccnc2cc1OCCCN1CCCC(C)C1 (stereo not shown) [Example 46, N-(3-Fluoro-4-{6-methoxy-7-[3-(3-methyl-piperidin-1-yl)-propoxy]-quinolin-4-yloxy}-phenyl)-3-trifluoromethoxy-benzenesulfonamide]	< 0.5 µM	≤ 12.5 µM	102 to 104 °C	≤ 10 µM	≤ 12.5 µM
COc1cc2c(Oc3cccc(NS(=O)(=O)c4c(Cl)cccc4Cl)c3)ccnc2cc1OCCCN1CCN(C)CC1 [Example 128, 2,6-Dichloro-N-(3-{6-methoxy-7-[3-(4-methyl-piperazin-1-yl)-propoxy]-quinolin-4-yloxy}-phenyl)-benzenesulfonamide]	0.5 to 3 µM	≤ 12.5 µM	111 to 112 °C	≤ 10 µM	≤ 12.5 µM
COc1cc2c(Oc3ccc(NS(=O)(=O)c4csc5ccccc45)cc3F)ccnc2cc1OCCCN1CCC(C)CC1 [Example 115, Benzo[b]thiophene-3-sulfonic acid (3-fluoro-4-{6-methoxy-7-[3-(4-methyl-piperidin-1-yl)-propoxy]-quinolin-4-loxy}-phenyl)-amide]	< 0.5 µM	≤ 12.5 µM	132 to 135 °C	≤ 10 µM	≤ 12.5 µM
COc1cc2c(Oc3ccc(NS(=O)(=O)c4cccs4)cc3F)ccnc2cc1OCCCN(C)C [Example 186, Thiophene-2-sulfonic acid {4-[7-(3-dimethylamino-propoxy)-6-methoxy-quinolin-4-yloxy]-3-fluoro-phenyl}-amide]	< 0.5 µM	≤ 12.5 µM	186 to 188 °C	10 to 25 µM	≤ 12.5 µM
COc1cc2c(Oc3ccc(NS(=O)(=O)c4ccco4)cc3F)ccnc2cc1OCCCN1CCCCC1C (stereo not shown) [Example 148, Furan-2-sulfonic acid (3-fluoro-4-{6-methoxy-7-[3-(2-methyl-piperidin-1-yl)-propoxy]-quinolin-4-yloxy}-phenyl)-amide]	0.5 to 3 µM	12.5 to 50 µM	118 to 119 °C	10 to 25 µM	≤ 12.5 µM
COc1cc2c(Oc3ccc(NS(=O)(=O)c4c(Cl)cccc4Cl)cc3C)ccnc2cc1OCCCN1CCC(C)CC1 [Example 176, 2,6-Dichloro-N-(4-{6-methoxy-7-[3-(4-methyl-piperidin-1-yl)-propoxy]-quinolin-4-yloxy}-3-methyl-phenyl)-benzenesulfonamide]	0.5 to 3 µM	≤ 12.5 µM	209 to 210 °C	≤ 10 µM	≤ 12.5 µM
COc1cc2c(Oc3ccc(NS(=O)(=O)c4c(F)cccc4F)cc3OC)ccnc2cc1OCCCN1CCC(C)CC1 [Example 173, 2,6-Difluoro-N-(3-methoxy-4-{6-methoxy-7-[3-(4-methyl-piperidin-1-yl)-propoxy]-quinolin-4-yloxy}-phenyl)-benzenesulfonamide]	0.5 to 3 µM	12.5 to 50 µM	98 to 101 °C	10 to 25 µM	≤ 12.5 µM
COc1cc2c(Oc3ccc(NS(=O)(=O)c4cccc(C(F)(F)F)c4)cc3F)ccnc2cc1OCCCN1CCCCC1 [Example 5, N-{3-Fluoro-4-[6-methoxy-7-(3-piperidin-1-yl-propoxy)-quinolin-4-yloxy]-phenyl}-3-trifluoromethyl-benzenesulfonamide]	< 0.5 µM	12.5 to 50 µM	123 to 126 °C	10 to 25 µM	≤ 12.5 µM
COc1cc2c(Oc3ccc(NS(=O)(=O)c4ccsc4)cc3F)ccnc2cc1OCCCN1CCCC(C)C1 (stereo not shown) [Example 65, Thiophene-3-sulfonic acid (3-fluoro-4-{6-methoxy-7-[3-(3-methyl-piperidin-1-yl)-propoxy]-quinolin-4-yloxy}-phenyl)-amide]	< 0.5 µM	≤ 12.5 µM	174 to 176 °C	10 to 25 µM	≤ 12.5 µM

More lines, main results first:

IC50 [2]	IC50 (Hs578T [3])	melting point	Structure (SMILES)	IC50 (Hs578T [1])	IC50 (Hs578T [4])
0.5 to 3 µM	≤ 12.5 µM	191 to 193 °C	COc1cc2c(Oc3ccc(NS(=O)(=O)c4c(F)cccc4F)cc3C)ccnc2cc1OCCCN1CCC(C)CC1 [Example 172, 2,6-Difluoro-N-(4-{6-methoxy-7-[3-(4-methyl-piperidin-1-yl)-propoxy]-quinolin-4-yloxy}-3-methyl-phenyl)-benzenesulfonamide]	≤ 10 µM	≤ 12.5 µM
< 0.5 µM	≤ 12.5 µM	165 to 167 °C	COc1cc2c(Oc3ccc(NS(=O)(=O)c4ccccc4C(F)(F)F)cc3C)ccnc2cc1OCCCN1CCC(C)CC1 [Example 89, N-(4-{6-Methoxy-7-[3-(4-methyl-piperidin-1-yl)-propoxy]-quinolin-4-yloxy}-3-methyl-phenyl)-2-trifluoromethyl-benzenesulfonamide]	≤ 10 µM	≤ 12.5 µM
< 0.5 µM	≤ 12.5 µM	132 to 134 °C	COc1cc2c(Oc3ccc(NS(=O)(=O)c4c(F)cccc4F)cc3F)ccnc2cc1OCCCN1CCCCC1C (stereo not shown) [Example 152, 2,6-Difluoro-N-(3-fluoro-4-{6-methoxy-7-[3-(2-methyl-piperidin-1-yl)-propoxy]-quinolin-4-yloxy}-phenyl)-benzenesulfonamide]	≤ 10 µM	≤ 12.5 µM
< 0.5 µM	≤ 12.5 µM	117 to 119 °C	COc1cc2c(Oc3ccc(NS(=O)(=O)c4cccs4)cc3F)ccnc2cc1OCCCN1CCCCC1C (stereo not shown) [Example 144, Thiophene-2-sulfonic acid (3-fluoro-4-{6-methoxy-7-[3-(2-methyl-piperidin-1-yl)-propoxy]-quinolin-4-yloxy}-phenyl)-amide]	10 to 25 µM	≤ 12.5 µM
0.5 to 3 µM	≤ 12.5 µM	177 to 178 °C	COc1cc2c(Oc3cccc(NS(=O)(=O)c4cc(Cl)sc4Cl)c3)ccnc2cc1OCCCN1CCN(C)CC1 [Example 134, 2,5-Dichloro-thiophene-3-sulfonic acid (3-{6-methoxy-7-[3-(4-methyl-piperazin-1-yl)-propoxy]-quinolin-4-yloxy}-phenyl)-amide]	≤ 10 µM	≤ 12.5 µM
